# PubChem BioAssay AID179 (DTP/NCI, 2004)
# Values joined by “and” are separate entries in the source; they are usually repeats but may differ in a detail not shown here. Equal entries are not always repeated. Active and inactive are the calls of the source.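 Rule for the calls: active = compounds giving half or more protection of infected cells from virus-caused growth loss, again on retest; inactive = the rest.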
# System: CEM cells HIV-1 protection, formazan growth assay
# Assay: NCI AIDS Antiviral Assay
# Details: for IC50: measured here: growth of uninfected CEM cells
# Method in brief: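 CEM (human) cells, HIV-1 infected vs uninfected, 5-point dosing, formazan growth read-out. Retest threshold 50% protection.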
Structure (SMILES),EC50,IC50,outcome
CCCCCCCCCCCCCCCCCCOC(COP(=O)(O)OCC1CCC(n2ccc(NC(=O)CCCCCCCCCCCCCCC)nc2=O)O1)COP(=O)(O)OCC1OC(n2cc(C)c(=O)[nH]c2=O)CC1N=[N+]=[N-] (centres undefined),0.871 µM,50.1 µM,
Cc1ccc(/C(O)=C/C(=O)C(=O)NN=C(c2ccccc2)c2ccccc2)cc1,> 200 µM,107 µM,
Brc1c(C(Br)Br)ccc2ccccc12,> 200 µM,23.4 µM,
C=CC/C(C(=O)OC)=C(/C(=O)OC)N(CCC)CCC,> 200 µM,33.9 µM,
Oc1ccc(/C=C\c2cnccn2)cc1,> 251 µM,33.9 µM,
COc1ccc(NC(=O)CSc2nnc(-c3ccc(N=Cc4ccc(Cl)cc4)cc3)o2)cc1,> 141 µM,31.6 µM,
Cc1ccc(-c2csc(=Nc3c(C)n(C)n(-c4ccccc4)c3=O)n2CCO)cc1,> 200 µM,79.4 µM,
COc1ccc(-c2cc3c(c4cc(OC)ccc24)C(=O)OC3=O)cc1,> 11.2 µM,> 11.2 µM,
CC(C)C1CC2C(=O)N(c3ccccc3)C(=O)C2c2[nH]c3ccccc3c21 (centres undefined),,,inactive
Cc1c(C2Cc3ccccc3N2)c2ccccc2n1C (centres undefined),> 603 µM,195 µM,
CCO[C@@H]1CCC(S(=O)c2ccc(C)cc2)=CO1 (some centres undefined),> 200 µM,> 200 µM,
O=C1N[C@@H]2CCCC[C@@H]2C12CCCCC2,,,inactive
O=C(CSc1nnc(-c2ccc(N=Cc3ccc(Cl)cc3)cc2)o1)Nc1cccc(Cl)c1,> 74.1 µM,> 74.1 µM,
CC(CNc1ccc(Cl)cc1)(CNc1ccc(Cl)cc1)[N+](=O)[O-],> 14.8 µM,> 14.8 µM,
COc1cc(OC)c(C(=O)c2cccs2)cc1N,,,inactive
CCOC(=O)c1ccc(N2CCN(c3c(C)nc(N)nc3N)CC2)cc1,> 100 µM,0.0316 µM,
COc1ccc2c(c1)OC[C@@H]1c3cc(NS(=O)(=O)c4ccccc4)cc(OCc4ccccc4)c3O[C@H]21,10.2 µM,13.5 µM,
CCc1cc(-c2ccc(OC)cc2)c(C#N)c(=S)n1C1OC(COC(C)=O)C(OC(C)=O)C(OC(C)=O)C1OC(C)=O (centres undefined),> 200 µM,14.5 µM and 12.3 µM,
O=C1OCCOC(=O)c2cccc(n2)C(=O)OCCOC(=O)c2cccc1n2,22.9 µM,25.7 µM,
C=C1C(=O)OC2C=CCCCC12 (centres undefined),> 53.7 µM,4.68 µM,
CN1C(=N\S(=O)(=O)c2ccc(Cl)cc2)/C(=N/N=P(c2ccccc2)(c2ccccc2)c2ccccc2)c2ccccc21,> 2.34 µM,> 2.34 µM,
COc1ccc(C2C3=CONC3CC3CCCCC32)cc1 (centres undefined),> 200 µM,77.6 µM,

Structure (SMILES),EC50,IC50,outcome
Cc1ccc(S(=O)(=O)n2cc(/C=C/C#N)c(-c3cn(S(=O)(=O)c4ccc(C)cc4)cc3-c3cn(S(=O)(=O)c4ccc(C)cc4)cc3/C=C/C#N)c2)cc1,> 200 µM,> 200 µM,
Clc1cc(Cl)cc(C=NC23CC4CC(CC(C4)C2)C3)c1,> 200 µM,44.7 µM,
Cc1ccc(C(=O)NCCCl)cc1C,,,inactive
CN(C)c1ccc(/C=C(\C#N)c2ccc(Cl)c(Cl)c2)cc1,> 100 µM,3.63 µM,
COc1cccc(NCC(=O)Nn2c(-c3ccccc3)nc3ccccc3c2=O)c1,> 200 µM,112 µM,
COC(=O)c1cc2c(n1S(=O)(=O)c1ccc(C)cc1)C(=O)C(=O)c1[nH]cc(C(=O)OCc3ccccc3)c1-2,> 200 µM,0.38 µM,
CC(=O)O[C@H]1CSC[C@@H](OC(C)=O)C1[N+](=O)[O-] (some centres undefined),> 692 µM,33.1 µM,
CC(C(C(=O)O)S(=O)(=O)O)C(C(=O)O)S(=O)(=O)O (centres undefined),> 100 µM,20.4 µM,
CCOc1ccc2nc(NC(=O)/C(CC(=O)CC(C3=C(O)c4ccccc4CC3=O)c3ccccc3)=N\O)sc2c1 (centres undefined),> 4.79 µM,> 4.79 µM,
Cc1cn(C(C)OCCN(OC(=O)Oc2ccccc2)C(=O)Oc2ccccc2)c(=O)[nH]c1=O (centres undefined),> 200 µM,> 200 µM,
OCC1CC(F)C(n2cnc3c(Br)ncnc32)O1 (centres undefined),> 158 µM,27.5 µM,
CCOC(=N)CCCSSc1ccc(N=[N+]=[N-])cc1,> 200 µM,25.7 µM,
CCN1C(=O)C(C)C=C(C)C=C1C (centres undefined),> 724 µM,> 724 µM,
CCOC(=O)CC1(c2ccccc2)OC(=O)c2ccccc21 (centres undefined),,,inactive
S=C1N(c2ccc(Cl)cc2)C2=C(N=Nc3ccccc3)C(=Nc3ccccc3S2)N1c1ccccn1,> 50.1 µM,10 µM,
CC(=O)C1C(=O)OC2C3C=CC(C3)C2C1=O (centres undefined),> 309 µM,> 309 µM,
CCN(CC)CC(=O)Nc1cccc(Cl)c1,> 200 µM,> 200 µM,
C=C1C(=O)OC2CC(C)C(C(O)CC(C)O)=CCC12 (centres undefined),> 447 µM,8.32 µM,
COC(=O)C(CC1CC(OC(C)=O)c2[nH]c3ccccc3c2CCN(C(C)=O)C1)C(=O)OC (centres undefined),> 135 µM,> 135 µM,
C/C(=N/O)c1ccc2c(c1)C(=NO)c1cc(/C(C)=N/O)ccc1-2,> 83.2 µM,11.5 µM,
CC1(Cl)C(=O)NN=C1c1ccc([N+](=O)[O-])cc1 (centres undefined),> 200 µM,17.8 µM,
c1ccc(-c2cn3nc(N4CCOCC4)sc3n2)cc1,> 200 µM,> 200 µM,

Structure (SMILES),EC50,IC50,outcome
O=c1n(-c2ccccc2)c(=O)n2n1C1CC3c4ccccc4C1C2C31CC1 (centres undefined),> 35.5 µM,> 35.5 µM,
CCOC(=O)Cc1nc(Nc2ccc(F)c(Cl)c2)c2c3c(sc2n1)CCCC3,> 12.3 µM,> 12.3 µM,
ClC1=NSSC1(Cl)Cl,> 200 µM,27.5 µM,
N#Cc1ccccc1Sc1ccccc1N,> 158 µM,> 158 µM,
CCCCNCCC(SSSC(CCNCCCC)c1ccc(Cl)cc1)c1ccc(Cl)cc1 (centres undefined),> 200 µM,3.47 µM,
Cc1cn(C2CCC(CO)O2)c(=O)[nH]c1=O (centres undefined),162 µM,> 200 µM,
Nc1ccccc1Sc1ccc(Cl)cc1,,,inactive
C=C(CCC(Cl)C(O)CO)[Si](C)(C)C (centres undefined),> 110 µM,> 110 µM,
O=C(Cc1ccccc1)N/N=C(/CCN1CCCC1)CC(c1ccccc1)c1c(O)c2ccccc2oc1=O (centres undefined),,,inactive
Cc1c(CCCl)c(N=[N+]=[N-])n2c(nc3ccccc32)c1C#N,> 200 µM,11 µM,
Cc1ccc(C(=O)OCC(C)C)cc1N=NN(C)C,> 27.5 µM,> 27.5 µM,
O=C1/C(=C\c2ccccc2)c2ccccc2N1/N=C\c1ccccc1,> 30.9 µM,> 30.9 µM,
COc1ccccc1NC(=O)C1=C(C)NC(C)=C(C(=O)Nc2ccccc2OC)C1c1ccc(C(C)C)cc1,,,inactive
Cc1cc(-c2c(O)c3c(ccc4ccccc43)oc2=O)no1,> 200 µM,93.3 µM,
CNC(=O)CCCC=C(c1cc(Cl)c(OC)c(C(=O)NC)c1)c1cc(Cl)c(OC)c(C(=O)NC)c1,> 200 µM,38.9 µM,
CCOC(=O)c1cn(-c2ccccc2)c(=S)n2c1nc1ccccc12,> 200 µM,7.59 µM,
CC(=O)C(=Cc1ccc(O)cc1)C(C)=O,> 1230 µM,75.9 µM,
COc1ccc(NC(=O)CC/C(CC(=O)C(C)(C)C)=N\NC(=O)C(N)=O)cc1,> 93.3 µM,> 93.3 µM,
CC1(O)[C@@H]2O[C@@H]2C2(CCCO2)[C@@H]2O[C@@H]21 (some centres undefined),> 200 µM,> 200 µM,
Cn1cc(NC(=O)Nc2cc(C(=O)Nc3cc(C(=O)Nc4cc(C(=O)Nc5cc(P(=O)(O)O)c6cccc(P(=O)(O)O)c6c5)n(C)c4)n(C)c3)n(C)c2)cc1C(=O)Nc1cc(C(=O)Nc2cc(C(=O)Nc3cc(P(=O)(O)O)c4cccc(P(=O)(O)O)c4c3)n(C)c2)n(C)c1,0.288 µM,75.9 µM,
O=C1CCCN(Cc2ccccc2)C(=O)N1,> 1150 µM,> 1150 µM,
Cc1c(C(Cc2ccccc2N(C)C(=O)/C=C\C(=O)O)c2c[nH]c3ccccc23)c2ccccc2n1C (centres undefined),> 363 µM,22.4 µM,

Structure (SMILES),EC50,IC50,outcome
NC(=O)NNC/C(Cl)=C(\Cl)C(=O)O,> 1100 µM,191 µM,
CCC1CCCCN1CC(C(C)=O)C(c1ccccc1)c1c(O)c2ccccc2oc1=O (centres undefined),> 69.2 µM,> 69.2 µM,
NS(=O)(=O)c1nnc(NC(=O)CCC(=O)O)s1,> 200 µM,> 200 µM,
CCCCCCCCCC(=O)OCC1OC(n2cc(F)c(=O)[nH]c2=O)C(NC(=O)OCc2ccccc2)C(OC(=O)CCCCCCCCC)C1O (centres undefined),> 9.77 µM,> 9.77 µM,
CN(C)CC1CCCC(CN(C)C)C1=NOC(=O)c1ccccc1 (centres undefined),> 200 µM,174 µM,
O=C(O)/C=C\CCCCC(=O)O,> 1450 µM,> 1450 µM,
O=C(/C=C/c1ccc(O)c(O)c1)CC(=O)/C=C/c1ccc(O)c(O)c1,> 200 µM,10.2 µM,
CCOc1ccc(NC2=CC(=O)C(=O)c3ccccc32)cc1,> 9.55 µM,> 9.55 µM,
Cc1cc(=O)oc2cc(OCc3nc4ccccc4c(=O)n3-c3ccccc3)ccc12,> 43.7 µM,> 43.7 µM,
CC(=C/c1ccccc1)/C=C1/NC(=S)N(CN2CCCCCC2)C1=O,> 200 µM,110 µM,
CC(C)OP(=O)(OC(C)C)C(=NCCN=C(NNc1ccccc1[N+](=O)[O-])P(=O)(OC(C)C)OC(C)C)NNc1ccccc1[N+](=O)[O-],> 13.8 µM,> 13.8 µM,
COc1ccc2c(=O)c(-c3ccc4c(c3)OCO4)c(C)oc2c1,> 200 µM,42.7 µM,
Cc1cc2c(=O)cc(-c3ccccc3Cl)oc2c(C#N)c1C,> 100 µM,> 100 µM,
O=C1c2cccnc2-c2nccc3c2c1nc1cc(Br)ccc13,> 2.69 µM,0.132 µM,
Cc1nc2cc(C(=O)NC=O)c3n[nH]nc3c2n1C,> 200 µM,> 200 µM,
COC1=CC2C3Cc4c(-c5cc(OC)c(O)c6c5CC5C7C=C(OC)C(=O)CC67CCN5C)cc(OC)c(O)c4C2(CCN3C)CC1=O (centres undefined),> 200 µM,> 200 µM and 132 µM and 117 µM,
O=C(N[C@H]1CCC[C@H]1C(=O)Nc1ccc(C(F)(F)F)cc1)OCc1ccccc1,> 200 µM,> 200 µM,
NC(Cc1ccc(OCc2ccccc2)cn1)C(=O)OCc1ccccc1 (centres undefined),> 200 µM,> 200 µM,
O=C1NC(=O)C(CC2CCCCCCCCCCC2=O)C(=O)N1 (centres undefined),> 112 µM,> 112 µM,
Nc1nnc(-c2ccco2)c(-c2ccco2)n1,> 200 µM,186 µM,
